Results on two compounds are retold here after article PMC9775652, “Concomitant Administration of Red Ginseng Extract with Lactic Acid Bacteria Increases the Plasma Concentration of Deglycosylated Ginsenosides in Healthy Human Subjects” (Biomolecules, 2022).

Data set [1] is described as follows: Pharmacokinetic study of ginsenosides in healthy humans after repeated oral RGE with or without LAB. Format: in vivo, human. The settings on record: male, human, in vivo, po; for AUC: 104.1 mg. On the procedure:
A single-sequence study consisting of two periods was conducted on five healthy male subjects (body weight > 50 kg and age > 19 years) for 29 days. During the first period of the study (RGE treatment group), three pouches of RGE (30 mL, 104.1 mg of total ginsenosides) were administered to 5 subjects once daily for 14 days. On the 14th day, the subjects were admitted to the Clinical Trial Center of KNUH at 7 AM and underwent the last RGE administration at approximately 8–9 AM. Blood samples (approximately 3 mL) were collected at 0, 4, 6, 8, 10, 12, 13, 14, and 24 h after the last dose. A saline-locked angiocatheter was placed on the forearm of each subject’s hand. After discarding 1 mL of blood derived from the catheter, 3 mL of blood was drawn into a vacutainer tube containing heparin and centrifuged at 3000× g for 10 min. The supernatant plasma samples were stored at −80 °C until ginsenoside analysis.
In the second half of the study (RGE + LAB treatment group), 3 pouches of RGE (30 mL, 104.1 mg of total ginsenosides) and 1 pouch of LAB (1 billion CFU/2 g) were co-administered once daily for 14 days. On the […], the subjects were admitted to the Clinical Trial Center of KNUH at 7 AM and received the last red ginseng dose at approximately 8–9 AM. Blood samples (approximately 3 mL) were withdrawn at 0, 4, 6, 8, 10, 12, 13, 14, and 24 h intervals after the last dose and centrifuged at 3000× g for 10 min; the supernatant plasma samples were stored at −80 °C.
Briefly, to analyze GRb1, GRb2, GRc, GRd, GRe, GRf, GRg1, GRg3, GF1, and GF2, 400 μL of an internal standard (IS; 0.05 ng/mL berberine in methanol) was added to 100 μL of plasma. The mixture was vortexed for 15 min and centrifuged at 16,000× g for 5 min. After centrifugation, 400 μL of the supernatant was evaporated using a speed-dry vacuum concentrator (Christ, Osterode am Harz, Germany). The residue was reconstituted using 200 μL of 70% methanol supplemented with 0.1% formic acid, and a 10 μL aliquot was injected into the LC-MS/MS system. Chromatographic separation was performed using a Polar RP column (150 × 2.0 mm, 4.0 μm particle size; Phenomenex, Torrance, CA, USA) using a mobile phase consisting of 0.1% formic acid in water (phase A) and 0.1% formic acid in methanol (phase B). The following elution gradient was used: 69% of phase B for 0–2.0 min, 69–85% of phase B for 2.0–4.0 min, and 85–69% of phase B for 6.0–6.5 min. The flow rate was 0.27 mL/min.
The mixture was vortexed for 10 min and centrifuged at 16,000× g for 5 min. After centrifugation, the samples were frozen at −80 °C for 4 h. The upper layer was transferred to a clean tube and evaporated. The residue was reconstituted using 200 μL of 80% methanol supplemented with 0.1% formic acid, and a 10 μL aliquot was injected into the LC-MS/MS system. Chromatographic separation was performed using a Luna C18 column (150 × 2.0 mm, 3.0 μm particle size; Phenomenex, Torrance, CA, USA) and using a mobile phase consisting of water containing 0.1% formic acid: methanol containing 0.1% formic acid = 8:92 (v/v) at a flow rate of 0.15 mL/min.
The quantification of ginsenosides was carried out using multiple reaction monitoring in positive ionization mode, as previously described.
Finally, pharmacokinetic parameters were calculated using non-compartmental methods (WinNonlin version 5.1; Pharsight Co., Certara, NJ, USA). Statistical analysis was performed by Student’s t-test to compare the two groups using IBM SPSS Statistics for Windows (version 25.0; IBM Corp., Armonk, NY, USA). Differences were considered significant at p < 0.05.

The nature of data set [2]: Transport (permeability) of ginsenosides in CaCo-2 cell monolayers. Type of data set: in vitro ADME. The settings on record: human, Caco-2, Efflux ratio (ER). The procedure:
CaCo-2 cells (passage no 41–43) were seeded onto collagen-coated permeable support (1.0 μm pore size) in a 24-well plate at a density of 2.5 × 10^4 cells/insert and cultured for 21 days in Dulbecco’s modified eagle’s medium supplemented with 10% fetal bovine serum, 1% non-essential amino acids, and 1% penicillin-streptomycin at 37 °C in a humidified atmosphere (5% CO2/95% air). After confirming that the transepithelial electrical resistance (TEER) of the CaCo-2 cell monolayer was over 400 Ω·cm^2, Apical to basal (A to B) transport and B to A transport of ginsenosides using 50 µM, GRb1 was investigated as previously described. The same permeability study was performed using 50 µM GRb2, GRc, GRd, GRg3, GRh2, GF2, CK, PPD, GRe, GRf, GRg1, GRh1, GF1, or PPT.
(§1) For the transport study of ginsenosides in CaCo-2 cells and LLC-PK1-P-gp cells, the ginsenoside transport rate in the A to B or B to A directions was calculated from the slope of the regression line from the mean transported amounts versus time plot. The apparent permeability (Papp) was calculated using Equation (1). (1) Papp (×10^−6 cm/s)=transport rate (nmol/min)/concentration(μM)×area(cm^2)×60s
(§2) The efflux ratio was calculated by dividing the Papp of ginsenosides from the B to A direction by that from the A to B direction.

The next data set addresses T1, P-gp (Homo sapiens, UniProt P08183).
T1 construct: host or cells: LLC-PK1-P-gp cells (passage no. 25–28)
The experiment in a line: Transport of ginsenosides in P-gp-overexpressing LLC-PK1-P-gp cells. Format: in vitro ADME. The procedure:
LLC-PK1-P-gp cells (passage no. 25–28) were seeded onto collagen-coated permeable support (1.0 μm pore size) in 24-well plates at a density of 2.5 × 10^4 cells/insert and grown for 5 days with TEER values of over 500 Ω·cm^2 [24]. The A to B transport and B to A transport of GRg3, GRh2, CK, PPD, GRg1, GRh1, and PPT (20 μM each) were measured as previously described. The concentration dependency in the B to A transport of GRh2, CK, PPD, and PPT was measured in the range of 6.25–200 μM for GRh2, CK, PPD, and PPT.
as §1, §2
To measure the kinetic parameters of the concentration dependence on the P-gp-mediated ginsenoside efflux, the ginsenoside transport rate in the B to A direction (ν) versus the ginsenoside concentration (S) plot was fitted in the Michaelis–Menten Equation (2) using Sigma Plot (version 12.0, Systat Software Inc. Chicago, IL, USA). (2) ν=Vmax×S/Km+S

The test system of the next data set is LAB. In words: In vitro RGE fermentation with LAB. Type of data set: in vitro ADME. The following applies: RGE incubated with LAB (1 billion CFU) for 7 days at 37 °C; result in words. The procedure:
To identify the effects of LAB on ginsenoside metabolism, an in vitro fermentation study was performed according to the method of Jeon et al., with slight modifications. Briefly, RGE (10 mL, 1 pouch) and 2 g LAB (containing 1 billion CFU) were suspended in 10 mL autoclaved MRS broth (550 mg broth powder dissolved in 10 mL water). For the 15 ginsenosides, individual ginsenosides (10 μM each) and 2 g of LAB were suspended in 20 mL of autoclaved MRS broth (550 mg broth powder dissolved in 20 mL water). The mixture was incubated for 7 days in a shaking incubator at 37 °C and 300 rpm, and a 0.1 mL aliquot of the incubation mixture was collected on days 0, 3, 5, and 7. The incubation medium was diluted 100-fold with distilled water and stored at −80 °C to analyze ginsenosides using the LC-MS/MS system.
To measure the metabolic activity of ginsenosides, the formation rate of ginsenosides (pmol/day) was calculated by dividing the slope of the regression line by the amount of deglycosylated ginsenosides versus the incubation time plot by the initial concentration of individual ginsenosides.

Details of data set [3]: method as in PMID 34575573. The settings on record: mice, LAB supplementation (Lacto-fit) for two weeks; cited from earlier work.
For data set [4] the following is noted: rat, in vivo, po; cited from earlier work.

Like-named read-outs stand apart in the source and are kept apart here.

T1 sequence (P08183 whole entry): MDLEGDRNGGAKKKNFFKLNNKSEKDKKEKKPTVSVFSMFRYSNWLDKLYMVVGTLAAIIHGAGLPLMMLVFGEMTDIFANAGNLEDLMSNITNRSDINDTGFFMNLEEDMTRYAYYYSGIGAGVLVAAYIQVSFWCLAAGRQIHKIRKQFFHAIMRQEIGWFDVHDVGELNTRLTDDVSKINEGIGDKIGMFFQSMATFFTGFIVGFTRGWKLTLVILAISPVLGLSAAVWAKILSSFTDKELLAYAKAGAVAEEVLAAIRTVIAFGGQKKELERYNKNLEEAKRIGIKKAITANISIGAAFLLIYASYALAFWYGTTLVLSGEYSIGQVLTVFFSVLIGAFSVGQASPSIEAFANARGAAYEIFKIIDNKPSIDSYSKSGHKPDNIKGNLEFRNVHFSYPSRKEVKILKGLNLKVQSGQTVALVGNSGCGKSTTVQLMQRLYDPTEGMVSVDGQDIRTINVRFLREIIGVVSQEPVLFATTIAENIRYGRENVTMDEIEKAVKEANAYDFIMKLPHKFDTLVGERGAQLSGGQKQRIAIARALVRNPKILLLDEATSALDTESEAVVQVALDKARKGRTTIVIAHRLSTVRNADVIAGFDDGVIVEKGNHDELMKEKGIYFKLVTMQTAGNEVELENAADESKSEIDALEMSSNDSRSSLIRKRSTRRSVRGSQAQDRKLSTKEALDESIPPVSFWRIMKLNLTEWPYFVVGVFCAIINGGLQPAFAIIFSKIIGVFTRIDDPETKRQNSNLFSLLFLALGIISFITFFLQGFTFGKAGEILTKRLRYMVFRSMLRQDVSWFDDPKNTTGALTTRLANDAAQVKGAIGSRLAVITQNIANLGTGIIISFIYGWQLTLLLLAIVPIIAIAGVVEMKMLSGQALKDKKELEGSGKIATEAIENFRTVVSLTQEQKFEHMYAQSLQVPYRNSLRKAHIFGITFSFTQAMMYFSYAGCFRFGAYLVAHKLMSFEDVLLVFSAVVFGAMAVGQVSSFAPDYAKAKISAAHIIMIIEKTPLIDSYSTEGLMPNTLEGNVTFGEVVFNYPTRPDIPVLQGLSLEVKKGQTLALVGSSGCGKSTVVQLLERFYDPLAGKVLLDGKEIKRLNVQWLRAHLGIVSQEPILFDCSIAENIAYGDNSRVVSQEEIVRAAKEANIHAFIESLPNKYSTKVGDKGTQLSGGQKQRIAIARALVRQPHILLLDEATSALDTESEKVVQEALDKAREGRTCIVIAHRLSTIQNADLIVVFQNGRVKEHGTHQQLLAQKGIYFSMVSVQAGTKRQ

On to `CC(C)=CCCC(C)(O)C1CCC2(C)C1C(O)CC1C3(C)CCC(O)C(C)(C)C3CCC12C` (stereo not shown) [PPD, 20(s)-protopanaxadiol], for which, in data set [1], the area under the curve (AUC) was found to be 130 ± 39.9 ng·h/mL, the maximum concentration (Cmax) worked out at 7.6 ± 1.7 ng/mL, the MRT is 18.6 ± 5 h and the time to peak (Tmax) was found to be 16 ± 18.5 h. In addition, the efflux ratio at 50 µM in data set [2] amounted to 2.7. Besides, on P-gp (P-gp-mediated B to A transport in LLC-PK1-P-gp cells), the “CLint (intrinsic clearance)” value was found to be 5.2 µL/min. Besides, the efflux ratio at 20 μM on P-gp (pig, LLC-PK1, LLC-PK1-P-gp cells, 20 μM, B to A Papp divided by A to B Papp, read-out: ER) stood at 3.3. Further, the Papp A→B at 20 μM on P-gp (pig, LLC-PK1-P-gp cells, 20 μM, mean ± SD, n = 3, read-out: A to B permeability) worked out at 0.13 ± 0.01 ×10⁻⁶ cm/s. At P-gp (pig, LLC-PK1-P-gp cells, 20 μM, mean ± SD, n = 3, read-out: B to A permeability), the Papp B→A at 20 μM came out at 0.42 ± 0.04 ×10⁻⁶ cm/s. Besides, in the data set with LAB, the “Relative abundance / metabolic activity following fermentation of RGE with LAB” value was “significantly increased”. Also, the “AUC fold increase with LAB supplementation compared to control groups” value in data set [3] was 2.67 fold. In data set [4], the “Oral BA” value is 36.8–48.1% and the “Oral bioavailability (BA)” value was 36.8–48.1%.

For the compound `CC(C)=CCCC(C)(O)C1CCC2(C)C1C(O)CC1C3(C)CCC(O)C(C)(C)C3C(O)CC12C` (stereo not shown) [PPT, 20(s)-protopanaxatriol], in data set [1], the AUC is 59.9 ± 49.2 ng·h/mL, the concentration peaked (Cmax) at 9.5 ± 4.8 ng/mL, the MRT came out at 19.4 ± 10.5 h and the Tmax was 17.4 ± 17.4 h. In addition, in data set [2], the efflux ratio at 50 µM was 2.7. At P-gp (pig, LLC-PK1), this compound registered a Papp A→B at 20 μM of 3.73 ± 0.56 ×10⁻⁶ cm/s and a Papp B→A at 20 μM of 10 ± 1.1 ×10⁻⁶ cm/s. The efflux ratio at 20 μM at P-gp (pig, LLC-PK1, ER) is 2.7. The “CLint (intrinsic clearance)” value on P-gp (pig, llc-pk1) was 231 µL/min. Besides, the “Relative abundance / metabolic activity following fermentation of RGE with LAB” value in the data set on LAB is on record as “significantly increased”. Also, in data set [3], the “AUC fold increase with LAB supplementation compared to control groups” value was 1.63 fold. The “Oral BA” value in data set [4] is 3.7%.
